# Reference: patent US20060009493A1, “Indolinone hydrazides as c-Met inhibitors” (Sugen, Inc., priority 2003, published 2006)
# Several values for one entry are separate records, joined by “and”; a condition that tells them apart may be missing. Identical values can stand only once.
# Target: T1, GST fusion protein containing the Met kinase domain (Homo sapiens, UniProt P08581)
# T1 construct: Purified GST fusion protein containing the Met kinase domain, Sugen, Inc
# Assay: MET Transphosphorylation Assay (ELISA, poly(Glu,Tyr) 4:1 substrate)
# Type: biochemical
# Conditions: met transphosphorylation of poly(glutamic acid:tyrosine 4:1) substrate; two values in a cell separated by '/'
# Outline: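 Poly(Glu-Tyr)-coated wells received the GST-Met kinase domain (10 ng/well) with compound in DMSO for 15 minutes. The reaction was started with ATP/MnCl2 in HEPES pH 7.5 buffer with vanadate, run 5 minutes, and stopped with EDTA. Phosphotyrosine was detected by anti-pTyr antibody, HRP secondary and ABTS/H2O2.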
# T1 sequence (P08581 1078-1345 limits assumed): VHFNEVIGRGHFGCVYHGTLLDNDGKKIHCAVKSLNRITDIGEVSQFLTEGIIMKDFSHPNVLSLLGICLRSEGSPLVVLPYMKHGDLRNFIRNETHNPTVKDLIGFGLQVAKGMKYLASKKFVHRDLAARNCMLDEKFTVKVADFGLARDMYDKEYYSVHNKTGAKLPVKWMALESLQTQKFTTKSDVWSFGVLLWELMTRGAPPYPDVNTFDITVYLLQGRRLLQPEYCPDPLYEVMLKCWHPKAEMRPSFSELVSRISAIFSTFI
row,SMILES,IC50
1,"CC(C(=O)N/N=C1\C(=O)Nc2ccc(O)c(Cl)c21)c1ccc(F)cc1 (stereo not shown) [II-105, 2-(4-Fluoro-phenyl)-propionic acid [(3Z)-4-chloro-5-hydroxy-2-oxo-1,2-dihydro-indol-3-ylidene)-hydrazide]",420 nM
2,"O=C(CCc1ccccc1)N/N=C1\C(=O)Nc2c(Cl)ccc(Cl)c21 [II-84, 3-Phenyl-propionic acid [(3Z)-4,7-dichloro-2-oxo-1,2-dihydro-indol-3-ylidene]-hydrazide]",> 20000 nM
3,"CC(C(=O)N/N=C1\C(=O)Nc2c(Cl)ccc(Cl)c21)c1ccc2c(c1)OCO2 (stereo not shown) [Example I-52, 2-Benzo[1,3]dioxol-5-yl-propionic acid [(3Z)-4,7-dichloro-2-oxo-1,2-dihydro-indol-3-ylidene]-hydrazide]",260 nM
4,"O=C(Cc1ccncc1)N/N=C1\C(=O)Nc2ccccc21 [II-21, Pyridin-4-yl-acetic acid [(3Z)-2-oxo-1,2-dihydro-indol-3-ylidene]-hydrazide]",3100 nM
5,"COc1cc(Cl)c2c(c1Cl)/C(=N/NC(=O)C(C)c1ccc(O)cc1)C(=O)N2 (stereo not shown) [II-113, 2-(4-Hydroxy-phenyl)-propionic acid [(3Z)4,7-dichloro-5-methoxy-2-oxo-1,2-dihydro-indol-3-ylidene)-hydrazide]",47 nM
6,"CC(C(=O)N/N=C1\C(=O)Nc2ccccc21)c1ccc(O)c(Br)c1 (stereo not shown) [II-103, 2-(3-Bromo-4-hydroxy-phenyl)-propionic acid [(3Z)-2-oxo-1,2-dihydro-indol-3-ylidene]-hydrazide]",180 nM
7,"CN1CCN(C(=O)c2ccc3c(c2)/C(=N/NC(=O)Cc2ccc(O)cc2)C(=O)N3)CC1 [Example I-12, (4-Hydroxy-phenyl)-acetic acid [(3Z)-5-(4-methyl-piperazine-1-carbonyl)-2-oxo-1,2-dihydro-indol-3-ylidene]-hydrazide]",78 nM
8,"COc1ccc2c(c1)/C(=N/NC(=O)Cc1ccc(O)cc1)C(=O)N2 [II-98, (4-Hydroxy-phenyl)-acetic acid [(3Z)-5-methoxy-2-oxo-1,2-dihydro-indol-3-ylidene]-hydrazide]",89 nM
9,"O=C(Cc1ccc(O)c(Br)c1)N/N=C1\C(=O)Nc2c(Cl)ccc(Cl)c21 [II-102, (3-Bromo-4-hydroxy-phenyl)-acetic acid [(3Z)-4,7-dichloro-2-oxo-1,2-dihydro-indol-3-ylidene]-hydrazide]",190 nM
10,"Cc1cc(Cl)cc2c1NC(=O)/C2=N\NC(=O)Cc1ccc(O)cc1 [II-63, (4-Hydroxy-phenyl)-acetic acid [(3Z)-5-chloro-7-methyl-2-oxo-1,2-dihydro-indol-3-ylidene]hydrazide]",< 9.1 nM
11,"Cc1cn(CC(=O)N/N=C2\C(=O)Nc3c(Cl)ccc(Cl)c32)c(=O)[nH]c1=O [II-74, (5-Methyl-2,4-dioxo-3,4-dihydro-2H-pyrimidin-1-yl)-acetic acid [(3Z)-4,7-dichloro-2-oxo-1,2-dihydro-indol-3-ylidene]-hydrazide]",> 20000 nM
12,"O=C(CCc1ccc(O)cc1)N/N=C1\C(=O)Nc2cccc(Cl)c21 [II-83, 3-(4-Hydroxy-phenyl)-propionic acid [(3Z)-4-chloro-2-oxo-1,2-dihydro-indol-3-ylidene]-hydrazide]",81 nM
13,"O=C(Cc1ccc(O)c(Cl)c1)N/N=C1\C(=O)Nc2ccc(C(=O)N3CCC(NC4CC4)CC3)c(Cl)c21 [Example I-38, (3-Chloro-4-hydroxy-phenyl)-acetic acid [(3Z)-4-chloro-5-(4-cyclopropylamino-piperidine-1-carbonyl)-2-oxo-1,2-dihydro-indol-3-ylidene]-hydrazide]",26 nM
14,"O=C(Cc1ccc(O)cc1)N/N=C1\C(=O)Nc2ccccc21 [II-23, (4-Hydroxy-phenyl)-acetic acid [(3E)-2-oxo-1,2-dihydro-indol-3-ylidene]-hydrazide]",520 nM
15,"COC(C(=O)N/N=C1\C(=O)Nc2ccccc21)c1ccccc1 (stereo not shown) [Example I-5, Methoxy-phenyl-acetic acid [(3Z)-2-oxo-1,2-dihydro-indol-3-ylidene]-hydrazide]",> 20000 nM and 13600 nM
16,Nc1ccc(CC(=O)N/N=C2\C(=O)Nc3ccccc32)cc1 [II-22],> 20000 nM
17,"CC(C(=O)N/N=C1\C(=O)Nc2ccc(C(=O)N3CCC[C@@H]3CN3CCCC3)c(Cl)c21)c1ccc(F)cc1 (stereo partly drawn) [Example I-40, 2-(4-Fluoro-phenyl)-propionic acid [(3Z)-4-chloro-2-oxo-5-[(2R)-(2-pyrrolidin-1-ylmethyl-pyrrolidine-1-carbonyl)]-1,2-dihydro-indol-3-ylidene]-hydrazide]",430 nM
18,"O=C(Cc1ccc(Cl)cc1)N/N=C1\C(=O)Nc2ccccc21 [II-7, (4-Chloro-phenyl)-acetic acid [(3E)-2-oxo-1,2-dihydro-indol-3-ylidene]-hydrazide]",> 20000 nM
19,"COc1ccc(CC(=O)N/N=C2\C(=O)Nc3ccccc32)cc1OC [II-5, (3,4-Dimethoxy-phenyl)-acetic acid [(3Z)-2-oxo-1,2-dihydro-indol-3-ylidene]-hydrazide]",> 20000 nM
20,"O=C(Cc1cnc(=O)[nH]c1)N/N=C1\C(=O)Nc2ccccc21 [II-89, (2-Oxo-1,2-dihydro-pyrimidin-5-yl)-acetic acid [(3Z)-2-oxo-1,2-dihydro-indol-3-ylidene]-hydrazide]",12600 nM
21,"CC(C(=O)N/N=C1\C(=O)Nc2ccccc21)c1ccc(O)cc1 (stereo not shown) [II-18, 2-(4-Hydroxy-phenyl)-propionic acid [(3Z)-2-oxo-1,2-dihydro-indol-3-ylidene]-hydrazide]",30 nM
22,"Cc1cc(C)c2c(c1)/C(=N/NC(=O)Cc1ccc(O)cc1)C(=O)N2 [II-26, (4-Hydroxy-phenyl)-acetic acid [(3Z)-5,7-dimethyl-2-oxo-1,2-dihydro-indol-3-ylidene]-hydrazide]",20 nM
23,"O=C(Cc1cccc(Cl)c1)N/N=C1\C(=O)Nc2ccccc21 [II-14, (3-Chloro-phenyl)-acetic acid [(3Z)-2-oxo-1,2-dihydro-indol-3-ylidene]-hydrazide]",5680 nM
24,"COc1ccc(CC(=O)N/N=C2\C(=O)Nc3ccc(C(=O)O)c(Cl)c32)cc1C#N [II-110, (3Z)-4-Chloro-3-{[2-(3-cyano-4-methoxy-phenyl)-acetyl]-hydrazono}-2-oxo-2,3-dihydro-1H-indole-5-carboxylic acid]",> 20000 nM
25,"O=C(Cc1ccc(O)cc1)N/N=C1\C(=O)Nc2cc(Cl)ccc21 [II-51, (4-Hydroxy-phenyl)-acetic acid [(3Z)-6-chloro-2-oxo-1,2-dihydro-indol-3-ylidene]-hydrazide]",17 nM
26,"O=C(Cc1ccc(O)cc1)N/N=C1\C(=O)Nc2cccc(C3CCNCC3)c21 [Example I-18, (4-Hydroxy-phenyl)-acetic acid [(3Z)-2-oxo-4-piperidin-4-yl-1,2-dihydro-indol-3-ylidene]-hydrazide]",> 20000 nM
27,"Cc1c(Br)ccc2c1/C(=N/NC(=O)Cc1ccc(O)cc1)C(=O)N2 [II-35, (4-Hydroxy-phenyl)-acetic acid [(3Z)-5-bromo-4-methyl-2-oxo-1,2-dihydro-indol-3-ylidene)-hydrazide]",16 nM
28,"CC(C(=O)N/N=C1\C(=O)Nc2cccc(-c3cccc(F)c3)c21)c1ccc(O)cc1 (stereo not shown) [Example I-16, 2-(4-Hydroxy-phenyl)-propionic acid [(3Z)-4-(3-fluoro-phenyl)-2-oxo-1,2-dihydro-indol-3-ylidene]-hydrazide]",140 nM
